Test results from patent publication US20260274833A1 (NiKang Therapeutics, Inc., priority 2022, published 2026).

Target: T1, CDK2 (Homo sapiens, UniProt P24941)
T1 construct: endogenous in cells; host or cells: OVCAR3 cells
Experiment: Phospho-RB measurement in OVCAR3 cells (HTRF phospho-RB cellular kit)
Format: cell-based
Conditions: inhibition of RB phosphorylation at S807/811 (HTRF, TR-FRET ratio 665/620), 24 h compound treatment, 0.3 to 10,000 nM
Outline: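 IC50 came from a four-parameter logistic fit of the DMSO-normalized TR-FRET ratio (665/620 nm). That ratio reflects RB phosphorylation at S807/811, read with an HTRF antibody pair 4 h after adding lysate at room temperature.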

Row | Structure (SMILES) | IC50 [nM]
1 | CCN(C)S(=O)(=O)Nc1cccc(-c2nc(C(C)(C)C)sc2-c2ccnc(NC3CC4(C3)CS(=O)(=O)C4)n2)c1F [Example 194, N-(3-(2-(tert-butyl)-5-(2-((2,2-dioxido-2-thiaspiro[3.3]heptan-6-yl)amino)-pyrimidin-4-yl)thiazol-4-yl)-2-fluoro-phenyl)-N-methyl-N-ethylamine-sulfonamide] | 1850
2 | CC(C)(C)c1nc(-c2cccc(NS(=O)(=O)N3CCc4cc(C#N)ccc43)c2F)c(-c2ccnc(NC3CC4(C3)CS(=O)(=O)C4)n2)s1 [Example 195, N-(3-(2-(tert-butyl)-5-(2-((2,2-dioxido-2-thiaspiro[3.3]heptan-6-yl)amino)-pyrimidin-4-yl)thiazol-4-yl)-2-fluoro-phenyl)-5-cyanoindoline-1-sulfonamide] | 320
3 | CN(C)Cc1cccc2c1CN(S(=O)(=O)Nc1cccc(-c3nc(C(C)(C)C)sc3-c3ccnc(NC4CC5(C4)CS(=O)(=O)C5)n3)c1F)C2 [Example 197, N-(3-(2-(tert-butyl)-5-(2-((2,2-dioxido-2-thiaspiro[3.3]heptan-6-yl)amino)-pyrimidin-4-yl)thiazol-4-yl)-2-fluoro-phenyl)-4-((dimethylamino)methyl)-isoindoline-2-sulfonamide] | 1080
4 | CN(C)C(=O)c1ccc2c(c1)N(S(=O)(=O)Nc1cccc(-c3nc(C(C)(C)C)sc3-c3ccnc(NC4CC5(C4)CS(=O)(=O)C5)n3)c1F)CC2 [Example 198, 1-(N-(3-(2-(tert-butyl)-5-(2-((2,2-dioxido-2-thiaspiro[3.3]heptan-6-yl)amino)pyrimidin-4-yl)thiazol-4-yl)-2-fluorophenyl)sulfamoyl)-N,N-dimethylindoline-6-carboxamide] | 667
5 | CC(C)(C)c1nc(-c2cccc(NS(=O)(=O)N3CCC4(CC4)C3)c2F)c(-c2ccnc(NC3CC4(C3)CN(S(C)(=O)=O)C4)n2)s1 [Example 199, N-(3-(2-(tert-butyl)-5-(2-((2-(methylsulfonyl)-2-azaspiro [3.3]heptan-6-yl)amino)pyrimidin-4-yl)thiazol-4-yl)-2-fluorophenyl)-5-azaspiro [2.4]heptane-5-sulfonamide] | > 3840
6 | CC(C)(C)c1nc(-c2cccc(NS(=O)(=O)N3CCc4ccc(C#N)cc43)c2F)c(-c2ccnc(NC3CC4(C3)CN(S(C)(=O)=O)C4)n2)s1 [Example 200, N-(3-(2-(tert-butyl)-5-(2-((2-(methylsulfonyl)-2-azaspiro [3.3]heptan-6-yl)amino)pyrimidin-4-yl)thiazol-4-yl)-2-fluorophenyl)-6-cyanoindoline-1-sulfonamide] | 247
7 | CC(C)(C)c1nc(-c2cccc(NS(=O)(=O)N3Cc4cccc(C(F)(F)F)c4C3)c2F)c(-c2ccnc(NC3CC4(C3)CS(=O)(=O)C4)n2)s1 [Example 201, N-(3-(2-(tert-butyl)-5-(2-((2,2-dioxido-2-thiaspiro[3.3]heptan-6-yl)amino)-pyrimidin-4-yl)thiazol-4-yl)-2-fluorophenyl)-4-(trifluoromethyl)-isoindoline-2-sulfonamide] | 76.3
8 | COc1cccc2c1CN(S(=O)(=O)Nc1cccc(-c3nc(C(C)(C)C)sc3-c3ccnc(NC4CC5(C4)CS(=O)(=O)C5)n3)c1F)C2 [Example 202, N-(3-(2-(tert-butyl)-S-(2-((2,2-dioxido-2-thiaspiro[3.3]heptan-6-yl)amino)-pyrimidin-4-yl)thiazol-4-yl)-2-fluoro-phenyl)-4-methoxyisoindoline-2-sulfonamide] | 86.2
9 | CNC(=O)c1ccc2c(c1)N(S(=O)(=O)Nc1cccc(-c3nc(C(C)(C)C)sc3-c3ccnc(NC4CC5(C4)CS(=O)(=O)C5)n3)c1F)CC2 [Example 203, 1-(N-(3-(2-(tert-butyl)-5-(2-((2,2-dioxido-2-thiaspiro[3.3]heptan-6-yl)amino)pyrimidin-4-yl)thiazol-4-yl)-2-fluorophenyl)sulfamoyl)-N-methyl-indoline-6-carboxamide] | 931
10 | CCOc1cccc2c1CN(S(=O)(=O)Nc1cccc(-c3nc(C(C)(C)C)sc3-c3ccnc(NC4CC5(C4)CS(=O)(=O)C5)n3)c1F)C2 [Example 204, N-(3-(2-(tert-butyl)-5-(2-((2,2-dioxido-2-thiaspiro[3.3]heptan-6-yl)amino)-pyrimidin-4-yl)thiazol-4-yl)-2-fluoro-phenyl)-4-ethoxyisoindoline-2-sulfonamide] | 69.2
11 | CC(C)(C)c1nc(-c2cccc(NS(=O)(=O)N3Cc4cccc(OC(F)F)c4C3)c2F)c(-c2ccnc(NC3CC4(C3)CS(=O)(=O)C4)n2)s1 [Example 205, N-(3-(2-(tert-butyl)-5-(2-((2,2-dioxido-2-thiaspiro[3.3]heptan-6-yl)amino)-pyrimidin-4-yl)thiazol-4-yl)-2-fluorophenyl)-4-(difluoromethoxy)-isoindoline-2-sulfonamide] | 40.4
12 | CN(C)c1cccc2c1CN(S(=O)(=O)Nc1cccc(-c3nc(C(C)(C)C)sc3-c3ccnc(NC4CC5(C4)CS(=O)(=O)C5)n3)c1F)C2 [Example 206, N-(3-(2-(tert-butyl)-S-(2-((2,2-dioxido-2-thiaspiro[3.3]heptan-6-yl)amino)-pyrimidin-4-yl)thiazol-4-yl)-2-fluoro-phenyl)-4-(dimethylamino) isoindoline-2-sulfonamide] | 619
13 | CNc1cccc2c1CN(S(=O)(=O)Nc1cccc(-c3nc(C(C)(C)C)sc3-c3ccnc(NC4CC5(C4)CS(=O)(=O)C5)n3)c1F)C2 [Example 207, N-(3-(2-(tert-butyl)-5-(2-((2,2-dioxido-2-thiaspiro[3.3]heptan-6-yl)amino)-pyrimidin-4-yl)thiazol-4-yl)-2-fluorophenyl)-4-(methylamino)-isoindoline-2-sulfonamide] | 199
14 | CC(C)(C)c1nc(-c2cccc(NS(=O)(=O)N3Cc4ccccc4C3c3ccccc3)c2F)c(-c2ccnc(NC3CC4(C3)CS(=O)(=O)C4)n2)s1 (centres unmarked) [Example 208, N-(3-(2-(tert-butyl)-5-(2-((2,2-dioxido-2-thiaspiro[3.3]heptan-6-yl)amino)-pyrimidin-4-yl)thiazol-4-yl)-2-fluoro-phenyl)-1-phenylisoindoline-2-sulfonamide] | 3690
15 | CC1(c2nc(-c3cccc(NS(=O)(=O)N4Cc5ccncc5C4)c3F)c(-c3ccnc(NC4CC5(C4)CS(=O)(=O)C5)n3)s2)CCOCC1 [Example 209, N-(3-(5-(2-((2,2-dioxido-2-thiaspiro-[3.3]-heptan-6-yl)amino)pyrimidin-4-yl)-2-(4-methyltetrahydro-2H-pyran-4-yl)thiazol-4-yl)-2-fluorophenyl)-1,3-dihydro-2H-pyrrolo [3,4-c]-pyridine-2-sulfonamide] | 350
16 | CC(C)(C)c1nc(-c2cccc(NS(=O)(=O)N3Cc4cccc(Oc5ccccc5)c4C3)c2F)c(-c2ccnc(NC3CC4(C3)CS(=O)(=O)C4)n2)s1 [Example 210, N-(3-(2-(tert-butyl)-5-(2-((2,2-dioxido-2-thiaspiro[3.3]heptan-6-yl)amino)-pyrimidin-4-yl)thiazol-4-yl)-2-fluoro-phenyl)-4-phenoxy-isoindoline-2-sulfonamide] | 505
17 | CC(C)(C)c1nc(-c2cccc(NS(=O)(=O)N3Cc4cccc(Oc5ccccc5)c4C3)c2F)c(-c2ccnc(NC3CCN(S(C)(=O)=O)CC3)n2)s1 [Example 211, N-(3-(2-(tert-butyl)-5-(2-((1-(methylsulfonyl)-piperidin-4-yl)amino)-pyrimidin-4-yl)thiazol-4-yl)-2-fluoro-phenyl)-4-phenoxyisoindoline-2-sulfonamide] | 613
18 | O=S1(=O)CC2(CC(Nc3nccc(-c4sc(N5C6CCC5COC6)nc4-c4cccc(NS(=O)(=O)N5Cc6ccncc6C5)c4F)n3)C2)C1 [Example 212, N-(3-(2-(3-oxa-8-azabicyclo [3.2.1]octan-8-yl)-5-(2-((2,2-dioxido-2-thiaspiro-[3.3]heptan-6-yl)amino)pyrimidin-4-yl)thiazol-4-yl)-2-fluorophenyl)-1,3-dihydro-2H-pyrrolo [3,4-c]-pyridine-2-sulfonamide] | 662
19 | CC(C)(C)c1nc(-c2cccc(NS(=O)(=O)N3Cc4ccccc4C3Cc3ccccc3)c2F)c(-c2ccnc(NC3CCN(S(C)(=O)=O)CC3)n2)s1 (centres unmarked) [Example 213, 1-benzyl-N-(3-(2-(tert-butyl)-5-(2-((1-(methylsulfonyl)piperidin-4-yl)amino)-pyrimidin-4-yl)thiazol-4-yl)-2-fluoro-phenyl)-isoindoline-2-sulfonamide] | 3300
20 | CC(C)(C)c1nc(-c2cccc(NS(=O)(=O)N3Cc4cccc(Oc5cccc(F)c5)c4C3)c2F)c(-c2ccnc(NC3CC4(C3)CS(=O)(=O)C4)n2)s1 [Example 214, N-(3-(2-(tert-butyl)-5-(2-((2,2-dioxido-2-thiaspiro[3.3]heptan-6-yl)amino)-pyrimidin-4-yl)thiazol-4-yl)-2-fluorophenyl)-4-(3-fluorophenoxy)-isoindoline-2-sulfonamide] | 535
21 | CC(C)(C)c1nc(-c2cccc(NS(=O)(=O)N3Cc4cccc(Oc5ccc(F)cc5)c4C3)c2F)c(-c2ccnc(NC3CC4(C3)CS(=O)(=O)C4)n2)s1 [Example 215, N-(3-(2-(tert-butyl)-5-(2-((2,2-dioxido-2-thiaspiro[3.3]heptan-6-yl)amino)-pyrimidin-4-yl)thiazol-4-yl)-2-fluoro-phenyl)-4-(4-fluoro-phenoxy)-isoindoline-2-sulfonamide] | 601
22 | CC(C)(C)c1nc(-c2cccc(NS(=O)(=O)N3CCc4c(CO)cccc43)c2F)c(-c2ccnc(NC3CC4(C3)CS(=O)(=O)C4)n2)s1 [Example 216, N-(3-(2-(tert-butyl)-5-(2-((2,2-dioxido-2-thiaspiro[3.3]heptan-6-yl)amino)-pyrimidin-4-yl)thiazol-4-yl)-2-fluoro-phenyl)-4-(hydroxymethyl) indoline-1-sulfonamide] | 65.4
23 | CC(C)(C)c1nc(-c2cccc(NS(=O)(=O)N3CCc4ccc(-c5ccccc5)cc43)c2F)c(-c2ccnc(NC3CC4(C3)CS(=O)(=O)C4)n2)s1 [Example 217, N-(3-(2-(tert-butyl)-5-(2-((2,2-dioxido-2-thiaspiro[3.3]heptan-6-yl)amino)-pyrimidin-4-yl)thiazol-4-yl)-2-fluoro-phenyl)-6-phenyl-indoline-1-sulfonamide] | 934
